Assay results: the NIST ThermoML archive (doi:10.1016/j.jct.2005.04.011)

Experiments:
[1] = refractive index (Na D-line) (dimensionless); cn = amount concentration of the nth substance listed, in mol/dm3; conditions: 101 kPa, Liquid, Standard Abbe refractometry, c1 = 0.2
[2] = cn = amount concentration of the nth substance listed, in mol/dm3; conditions: 101 kPa, Liquid, c1 = 0.2; for mass density: Pycnometric method

O=C[C@H](O)[C@@H](O)[C@H](O)[C@H](O)CO [D-glucose] + O
Conditions	mass density, 298.15 K [kg/m3]	mass density, 313.15 K [kg/m3]	refractive index, 298.15 K	refractive index, 303.15 K	refractive index, 308.15 K	refractive index, 313.15 K	viscosity, 298.15 K [mPa·s]	viscosity, 303.15 K [mPa·s]	viscosity, 308.15 K [mPa·s]	viscosity, 313.15 K [mPa·s]
[1]	–	–	1.336	1.335	1.3349	1.334	–	–	–	–
[2]	1010.3	1005.3	–	–	–	–	1.01	0.89	0.8	0.7
